Experiment [1] deals with Mycobacterium tuberculosis. Nature of the experiment: Antitubercular activity against isoniazid-resistant Mycobacterium tuberculosis ATCC 35822 harboring Ser-315-Tri mutation in katG gene after 9 days by resazurin reduction assay. The class given is functional. On the technique in general: Resazurin is reduced to fluorescent resorufin, in cell work by metabolically active cells.

The test system of experiment [2] is Mycobacterium tuberculosis. Nature of the experiment: Antitubercular activity against rifampicin-resistant Mycobacterium tuberculosis ATCC 35338 harboring His-526-Tri mutation in rpoB gene after 9 days by resazurin reduction assay. The class given is functional.

≈ marks a conversion by molar mass, not a printed value.

Turning to `CC(C)CCC1=C(O)C(=O)c2ccccc2C1=O`, the MIC in experiment [1] and in experiment [2] was 205 µM (≈ 50.1 µg/mL) throughout. Regarding `CC(C)CC1=C(O)C(=O)c2ccccc2C1=O`, the values for the MIC in experiment [1] and in experiment [2] were 217.4 µM (≈ 50.1 µg/mL) and 108.7 µM (≈ 25 µg/mL), respectively.

For `CC(C)CC1=C(O)C(=O)C2=C(CCCC2)C1=O`, the MIC (usually the smallest concentration in the dilution series that meets the test's criterion for growth inhibition) in experiment [1] worked out at 106.7 µM (≈ 25 µg/mL); in experiment [2], 53.35 µM (≈ 12.5 µg/mL). As for `CCCC1=C(O)C(=O)c2ccccc2C1=O`, the MIC in experiment [1] was determined as 462.5 µM (≈ 100 µg/mL); in experiment [2], 231.25 µM (≈ 50 µg/mL). As to `CCCC1=C(O)C(=O)C2=C(CCCC2)C1=O`, the minimal inhibitory concentration (MIC) in experiment [1] and in experiment [2] was 113.5 µM (≈ 25 µg/mL) throughout. Turning to `CC(C)=CCC1=C(OC2(CC=C(C)C)C(=O)c3ccccc3-c3nc4ccccc4nc32)C(=O)c2ccccc2C1=O` (stereo not drawn), the figures for the minimal inhibitory concentration (MIC) in experiment [1] and in experiment [2] were more than 180.2 µM and 180.2 µM (≈ 99.9 µg/mL), respectively. With `CC(C)CCc1c2[nH]c3ccccc3nc-2c2ccccc2c1=O`, the minimum inhibitory concentration (MIC) in experiment [1] and in experiment [2] was 39.5 µM (≈ 12.5 µg/mL) each time. As to `CC(C)CCc1c2[nH]c3ccccc3nc-2c2c(c1=O)CCCC2`, the minimal inhibitory concentration (MIC) in experiment [1] is more than 312.5 µM; in experiment [2] it was 39.1 µM (≈ 12.5 µg/mL). On the same counts, the results for `CC(C)CCC1=C(OC2(CCC(C)C)C(=O)c3ccccc3-c3nc4ccccc4nc32)C(=O)c2ccccc2C1=O` (stereo not drawn) are more than 178.9 µM and more than 178.9 µM.

For the compound `CC(C)CCC1=C(OC2(CCC(C)C)C(=O)C3=C(CCCC3)c3nc4ccccc4nc32)C(=O)C2=C(CCCC2)C1=O` (stereo not drawn), the minimum inhibitory concentration (MIC) in experiment [1] is more than 176.4 µM; in experiment [2], 176.4 µM (≈ 100 µg/mL). Turning to `CC(C)=Cc1c2[nH]c3ccccc3nc-2c2ccccc2c1=O`, the minimum inhibitory concentration (MIC) in experiment [1] and in experiment [2] was 83.3 µM (≈ 25 µg/mL) each time. As for `CC(C)Cc1c2[nH]c3ccccc3nc-2c2ccccc2c1=O`, the MIC in experiment [1] and in experiment [2] was more than 331.1 µM throughout.

On to `CC(C)Cc1c2[nH]c3ccccc3nc-2c2c(c1=O)CCCC2`, for which the minimal inhibitory concentration (MIC) in experiment [1] and in experiment [2] was more than 326.8 µM throughout. For the compound `CC(C)CC1=C(OC2(CC(C)C)C(=O)c3ccccc3-c3nc4ccccc4nc32)C(=O)c2ccccc2C1=O` (stereo not drawn), the MIC in experiment [1] and in experiment [2] was more than 188.3 µM throughout. On to `CC(C)CC1=C(OC2(CC(C)C)C(=O)C3=C(CCCC3)c3nc4ccccc4nc32)C(=O)C2=C(CCCC2)C1=O` (stereo not drawn), for which the minimal inhibitory concentration (MIC) in experiment [1] and in experiment [2] was 46.4 µM (≈ 25 µg/mL) each time. With `C=CCC1=C(O)C(=O)c2ccccc2C1=O`, the minimum inhibitory concentration (MIC) in experiment [1] is 467.3 µM (≈ 100 µg/mL); in experiment [2], 116.8 µM (≈ 25 µg/mL). Take `C=CCc1c2[nH]c3ccccc3nc-2c2ccccc2c1=O`: the values for the MIC in experiment [1] and in experiment [2] were 43.7 µM (≈ 12.5 µg/mL) and 174.8 µM (≈ 50.1 µg/mL), respectively. In the case of `C=CCC1=C(OC2(CC=C)C(=O)c3ccccc3-c3nc4ccccc4nc32)C(=O)c2ccccc2C1=O` (stereo not drawn), the minimum inhibitory concentration (MIC) in experiment [1] and in experiment [2] was more than 200.8 µM in each case. Consider `CCCC1=C(OC2(CCC)C(=O)c3ccccc3-c3nc4ccccc4nc32)C(=O)c2ccccc2C1=O` (stereo not drawn), for which the minimum inhibitory concentration (MIC) in experiment [1] and in experiment [2] was more than 198.8 µM throughout. With `CCCC1=C(OC2(CCC)C(=O)C3=C(CCCC3)c3nc4ccccc4nc32)C(=O)C2=C(CCCC2)C1=O` (stereo not drawn), the MIC in experiment [1] was more than 195.7 µM; in experiment [2], 195.7 µM (≈ 99.9 µg/mL). Take `CC(C)CCC1=C(O)C(=O)C2=C(CCCC2)C1=O`: the minimum inhibitory concentration (MIC) is 100.8 µM (≈ 25 µg/mL) in experiment [1] and 50.4 µM (≈ 12.5 µg/mL) in experiment [2].

In the case of `CC(C)=CC1=C(O)C(=O)c2ccccc2C1=O`, the figures for the MIC in experiment [1] and in experiment [2] were 438.6 µM (≈ 100 µg/mL) and 13.7 µM (≈ 3.13 µg/mL), respectively. Compound `NNC(=O)c1ccncc1` [ISONIAZID] gave an MIC in experiment [1] of 1.45 µM (≈ 0.199 µg/mL).

Take `CC(C)=CCC1=C(O)C(=O)c2ccccc2C1=O` [LAPACHOL]: the MIC in experiment [1] worked out at 413.2 µM (≈ 100 µg/mL); in experiment [2], 206.6 µM (≈ 50.1 µg/mL). As for `CO[C@H]1/C=C/O[C@@]2(C)Oc3c(C)c(O)c4c(O)c(c(/C=N/N5CCN(C)CC5)c(O)c4c3C2=O)NC(=O)/C(C)=C\C=C\[C@H](C)[C@H](O)[C@@H](C)[C@@H](O)[C@@H](C)[C@H](OC(C)=O)[C@@H]1C` [RIFAMPIN], the MIC in experiment [2] stood at 2.43 µM (≈ 2 µg/mL).

Values taken from ChEMBL document CHEMBL1828530, “Quinonoid and phenazine compounds: synthesis and evaluation against H37Rv, rifampicin and isoniazid-resistance strains of Mycobacterium tuberculosis” (Eur J Med Chem, 2011).
